# US11357748B2, “Methods for treating mendelian disorders of the epigenetic machinery” (THE JOHNS HOPKINS UNIVERSITY, priority 2014, dated 2022)
# Test system: H3K4 trimethylation activity in Kmt2d+/βGeo MEFs
# Assay: H3K4me3 indicator in murine embryonic fibroblasts (MEFs) from Kmt2d+/βGeo and Kmt2d+/+ mice
# Assay type: cell-based, mouse
# Conditions: FIG. 18H
# Description: An H3K4 trimethylation reporter was also created (FIG. 5B). This reporter is based on the H3 tail on one end and the TBP associated factor III (TAFIII) […] on the other end; the TAFIII […] only identifies and binds to trimethylated K4 on H3. When the H3K4 site gets trimethylated, the TAFIII […] can bind to the modified H3 tail and bring the two parts of the separated GFP in close proximity. The activity of the epigenetic modification system can be quantified through fluorescence.
# Epigenetic reporter alleles were synthesized (OriGene, Rockville, Md.) using published sequences for component elements (Baird et al. (1999) Proc. Natl. Acad. Sci. 96:11241-6; Souslova et al. (2007) BMC Biotechnol. 7:37). Single nucleotide mutations were created using the QuickChange Lightening kit (Agilent Technologies Inc, Santa Clara, Calif.). For H4ac indicator, K5R, K8R, K12R, K16R and K20R (MUT indicator) were introduced. For H3K4me3 indicator, K4Q and D890A/W891A and M882A (three separate constructs) were introduced. […] FACS data were analyzed using FlowJo (Tree Star Inc, Ashland, Oreg.). […]
# Epigenetic reporter systems were created that monitor either H4 acetylation or H3K4 trimethylation machinery activity in an effort to determine whether there is an ongoing activity deficiency in cells from Kmt2d^+/βGeo mice (FIG. 18A). Both reporter alleles encode halves of green fluorescent protein separated by a flexible linker region (Baird et al. (1999) Proc. Natl. Acad. Sci. 96: 11241-6) with a histone tail and a histone reader at the N- and C-termini, respectively. When the histone tail corresponding to either H4 or H3 is modified by acetylation or methylation, respectively, GFP structure and function are reconstituted, as detected by a fluorescent readout (FIG. 18B). The acetyl reporter protein quantifies the activity of the acetylation machinery (acetylation of H4 specifically at sites K5, K8, K12, and K16) and comprises an H4 tail (residues 1-30) on one end and a TATA binding protein (TBP)-associated factor II (TAFII) bromodomain on the other end (FIG. 18A). […]
smiles,measurement,setting,value
"CC(C)[C@H](C(=O)Nc1ccc(C(=O)NO)cc1)c1ccccc1 [AR-42, (S)—N-hydroxy-4-(3-methyl-2-phenylbutanamido)benzamide]",H3K4 trimethylation activity in Kmt2d+/βGeo cells upon treatment,"Kmt2d+/βGeo MEFs, 22A, 23",enhanced
same,H3K4me3 indicator activity in MEFs,both genotypes (Kmt2d+/+ and Kmt2d+/βGeo),dose-dependent response
